Patent US9458101B2 (priority 2009, dated 2016)

What was measured:
[1] = system: A549 (Human lung carcinoma); assay: Cytotoxicity testing (MTS) on A549; type: cell-based
Experimental: (§1) Cell lines used were A549 (Human lung carcinoma), HeLa (Human cervical carcinoma), MCF-7 (Human mammary gland adenocarcinoma), CEM (Human T-lymphoblastoid from ALL (Acute lymphoblastic leukemia)), M010B (Human glioma), M006X (Human glioma) and Jurkat (Human T-cell leukemia).
(§2) A series of dilutions were prepared and a wavelength scan of the diluted solution was used to determine the wavelength of maximum absorbance for each compound. Five standardized drug concentrations were scanned at this pre-determined wavelength to obtain an estimate of the compound's extinction coefficient.
(§3) A primary MTS assay was used to test the optimal number of cells for cytotoxicity assays. Cells were trypsinized, counted and introduced into seven lanes of a 96-well plate at different cell numbers (eight replicates per lane). Optimal cell numbers were determined after 72 and 96 hours of growth and were used in subsequent cytotoxicity assays. […] Cell viability was determined using the Cell Titer 96 AQueous One Solution Cell Proliferation Assay (Promega, U.S.A.).
(§4) Fits were performed using a dose-response model ideal for data showing an initial response plateau, a transition region, and a final response plateau.
(§5) [formula] […] Itop is the response obtained at very low/no drug concentration. The data and all parameters were normalized to Itop−Ibot, a measure of the maximum effect of the drug.

[2] = system: HeLa (Human cervical carcinoma); assay: Cytotoxicity testing (MTS) on HeLa; type: cell-based
Experimental: as §1, §2, §3, §4, §5

[3] = system: MCF-7 (Human mammary gland adenocarcinoma); assay: Cytotoxicity testing (MTS) on MCF-7; type: cell-based
Experimental: as §1, §2, §3, §4, §5

[4] = system: CEM (Human T-lymphoblastoid from ALL); assay: Cytotoxicity testing (MTS) on CEM; type: cell-based
Experimental: as §1, §2, §3, §4, §5

M010B (Human glioma) = assay: Cytotoxicity testing (MTS) on M010B; type: cell-based
Experimental: as §1, §2, §3, §4, §5

M006X (Human glioma) = assay: Cytotoxicity testing (MTS) on M006X; type: cell-based
Experimental: as §1, §2, §3, §4, §5

[5] = system: A549, HeLa, MCF-7 and CEM cell lines; assay: Cytotoxicity, mean over A549, HeLa, MCF-7 and CEM cell lines; details: for cytotoxicity compared with colchicine: cytotoxicity assays; for IC50 [log10 M] (mean logIC50): mean over A549, HeLa, MCF-7 and CEM cell lines
Description: as §1, §3, §5
Cytotoxicity screening was performed on a number of cell lines based on the cancer of origin and differing morphologies.

Compound	Fraction of cells that survive at the highest drug concentrations (Ibot) [1]	logIC50 [1] [log10 M]	Fraction of cells that survive at the highest drug concentrations (Ibot) [2]	logIC50 [2] [log10 M]	Fraction of cells that survive at the highest drug concentrations (Ibot) [3]	logIC50 [3] [log10 M]	Fraction of cells that survive at the highest drug concentrations (Ibot) [4]	logIC50 [4] [log10 M]	Fraction of cells that survive at the highest drug concentrations (Ibot) (M010B (Human glioma))	logIC50 (M010B (Human glioma)) [log10 M]	Fraction of cells that survive at the highest drug concentrations (Ibot) (M006X (Human glioma))	logIC50 (M006X (Human glioma)) [log10 M]	cytotoxicity compared with colchicine [5]	IC50 [log10 M] (mean logIC50) [5]	average IC50 values compared with colchicine ([5]; average values of Table 3)
C=CCOc1c(OC)c(OC)cc2c1-c1ccc(OC)c(=O)cc1[C@@H](NC(C)=O)CC2 [Compound 9]	0.227 ± 0.021	−6.66 ± 0.10	0.082 ± 0.018	−7.35 ± 0.09	0.484 ± 0.009	−7.10 ± 0.05	−0.004 ± 0.015	−7.46 ± 0.08	0.299 ± 0.017	−6.74 ± 0.08	0.037 ± 0.015	−7.47 ± 0.09	moderately better than colchicine	−7.15 ± 0.08	–
COc1cc2c(c(OCc3ccccc3)c1OC)-c1ccc(OC)c(=O)cc1[C@@H](NC(C)=O)CC2 [Compound 10, N-[(7S)-2,3,10-trimethoxy-9-oxo-1-((phenyl)methoxy)-5,6,7,9-tetrahydrobenzo [α]heptalen-7-yl]acetamide]	0.256 ± 0.032	−5.77 ± 0.10	0.080 ± 0.026	−6.17 ± 0.07	0.387 ± 0.016	−6.27 ± 0.08	0.012 ± 0.022	−6.45 ± 0.09	0.250 ± 0.031	−5.66 ± 0.10	0.088 ± 0.022	−6.42 ± 0.09	–	−6.16 ± 0.08	–
COc1cc2c(c(OCc3cccc(Cl)c3)c1OC)-c1ccc(OC)c(=O)cc1[C@@H](NC(C)=O)CC2 [Compound 12, N-[(7S)-2,3,10-trimethoxy-9-oxo-1-((phenyl(3-chloro))methoxy)-5,6,7,9-tetrahydrobenzo[α]heptalen-7-yl]acetamide]	0.245 ± 0.024	−6.00 ± 0.04	0.040 ± 0.038	−6.43 ± 0.15	0.390 ± 0.025	−6.30 ± 0.12	−0.015 ± 0.021	−6.46 ± 0.09	0.328 ± 0.022	−6.39 ± 0.11	0.051 ± 0.027	−6.47 ± 0.12	–	−6.30 ± 0.10	–
COc1cc2c(c(OCc3ccc(Cl)cc3)c1OC)-c1ccc(OC)c(=O)cc1[C@@H](NC(C)=O)CC2 [Compound 15]	0.288 ± 0.020	−6.23 ± 0.08	0.039 ± 0.034	−6.22 ± 0.09	0.381 ± 0.024	−6.35 ± 0.12	−0.016 ± 0.032	−6.57 ± 0.11	0.382 ± 0.028	−6.38 ± 0.14	0.058 ± 0.030	−6.45 ± 0.13	–	−6.34 ± 0.10	–
CCOc1cc2c(c(OC)c1OC)-c1ccc(SC)c(=O)cc1[C@@H](NC(C)=O)CC2 [Compound 42, N-[(7S)-3-ethoxy-1,2-dimethoxy-10-methylsulfanyl-9-oxo-5,6,7,9-tetrahydrobenzo[α]heptalen-7-yl]acetamide]	0.256 ± 0.015	−8.37 ± 0.10	0.046 ± 0.026	−8.47 ± 0.14	0.538 ± 0.010	−8.28 ± 0.10	0.026 ± 0.018	−8.64 ± 0.09	0.327 ± 0.023	−8.27 ± 0.12	0.184 ± 0.021	−8.83 ± 0.08	consistently the most effective	−8.44 ± 0.11	stronger than colchicine
N-[(7S)-2,3,10-trimethoxy-1-((methyl)cyclohexane)-9-oxo-5,6,7,9-tetrahydrobenzo[α]heptalen-7-yl]acetamide [Compound 16]	–	−4.95 ± 0.07	–	−5.33 ± 0.11	–	−5.22 ± 0.08	–	−5.53 ± 0.10	–	−5.20 ± 0.08	–	−5.44 ± 0.12	–	−5.26 ± 0.09	–
N-[(7S)-2,3,10-trimethoxy-9-oxo-1-(((3-methoxy)propan)oxy)(3-methoxy))-5,6,7,9-tetrahydrobenzo[α]heptalen-7-yl]acetamide [Compound 11]	–	−6.47 ± 0.12	–	−7.23 ± 0.09	–	−7.05 ± 0.04	–	−7.45 ± 0.09	–	−6.74 ± 0.08	–	−7.40 ± 0.09	–	−7.05 ± 0.09	–
